Among the data in patent US20190218207A1, “3-(Pyridin-3-yl)-Acrylamide and N-(Pyridin-3-yl)-Acrylamide Derivatives and Their Use as PAK or NAMPT Modulators” (Karyopharm Therapeutics Inc., priority 2015, published 2019) are IC50 values, retold here.

Where two headings read alike, the source gives them in different places.

For assay [1], the system named is MS751 cells. Description: MTT cell proliferation assay, MS751 cells. It is filed as cell-based, human. Particulars: incubation approximately 64-72 hours, read-out: MTT Assay IC50, MS 751. The method, then:
(§1) The MTT cell proliferation assay was used to study the cytotoxic properties of the compounds. The assay was performed according to the method described by Roche Molecular Biochemicals, with minor modifications. The assay is based on the cleavage of the tetrazolium salt, MTT, in the presence of an electron-coupling reagent. The water-insoluble formazan salt produced must be solubilized in an additional step. Cells grown in a 96-well tissue culture plate were incubated with the MTT solution for approximately 4 hours. After this incubation period, a water-insoluble formazan dye formed. After solubilization, the formazan dye was quantitated using a scanning multi-well spectrophotometer (ELISA reader). […] The cells were seeded at 5,000-10,000 cells in each well of 96-well plate in 100 μL of fresh culture medium and were allowed to attach overnight. The stock solutions of the compounds were diluted in […] cell culture medium to obtain eight concentrations of each test compound, ranging from 1 nM to 30 μM. […] All optical densities were measured at 490 nm using a Vmax Kinetic Microplate Reader (Molecular Devices). In most cases, the assay was performed in duplicate and the results were presented as a mean percent inhibition to the negative control±SE. The following formula was used to calculate the percent of inhibition: Inhibition (%)=(1-(ODo/OD))×100.
(§2) The compounds were tested against MS751, Z138 and 3T3 cells. The MS751 cell line is derived from a metastasis to lymph node of human cervix from a patient diagnosed with squameous cell carcinoma of the cervix. The Z138 cell line is a mature B-cell acute lymphoblastic leukemia cell line derived from a patient with chronic lumphocytic leukemia. 3T3 cells are standard fibroblast cells; they were originally isolated from Swiss mouse embryo tissue.
On the technique in general: Tetrazolium dyes change colour on reduction, which living cells bring about.

Assay [2] has as its system Z138 cells. Description: MTT cell proliferation assay, Z138 cells. In kind it is cell-based, human. The method, then:
as §1, §2

In assay [3] the test system is 3T3 cells. Nature of the assay: MTT cell proliferation assay, 3T3 cells. In kind it is cell-based, mouse. The following applies: 3T3 fibroblast cells, incubation approximately 64-72 hours. The method, then:
as §1, §2

[4] abbreviates: Homo sapiens, Z-138, incubation approximately 64-72 hours.
Setting [5] is: incubation approximately 64-72 hours, read-out: MTT Assay IC50, Z-138.

A word on the IC50: it is the concentration that gives 50% inhibition. As for `Cc1c(CNC(=O)/C=C/c2ccc(N)nc2)sc(-c2ccc(-c3ccc(C(=O)N4CC(F)C4)cc3)cc2C(F)(F)F)c1C` [Compound A016, (E)-3-(6-aminopyridin-3-yl)-N-((5-(4′-(3-fluoroazetidine-1-carbonyl)-3-(trifluoromethyl)-[1,1′-biphenyl]-4-yl)-3,4-dimethylthiophen-2-yl)methyl)acrylamide], the IC50 in assay [1] (Homo sapiens) is more than 10000 nM; in assay [2] (setting [4]), more than 10000 nM; in assay [3] (Mus musculus, NIH3T3), more than 10000 nM.
Regarding `Cc1c(CNC(=O)/C=C/c2ccc(N)nc2)sc(-c2ccc(C3CC3C(=O)N3CC(F)C3)cc2C(F)(F)F)c1C` (stereo not drawn) [Compound A017, (E)-3-(6-aminopyridin-3-yl)-N-((5-(4-(2-(3-fluoroazetidine-1-carbonyl)cyclopropyl)-2-(trifluoromethyl)phenyl)-3,4-dimethylthiophen-2-yl)methyl)acrylamide], the IC50 is 1000 to 5000 nM in assay [1] (Homo sapiens); less than 1000 nM in assay [2] (setting [4]); more than 10000 nM in assay [3] (Mus musculus, NIH3T3).
For `Nc1ccc(/C=C/C(=O)NCc2nnc(-c3ccc(-c4ccc(C(=O)N5CC(F)(F)C5)cc4)cc3C(F)(F)F)o2)cn1` [Compound A018, (E)-3-(6-aminopyridin-3-yl)-N-((5-(4′-(3,3-difluoroazetidine-1-carbonyl)-3-(trifluoromethyl)-[1,1′-biphenyl]-4-yl)-1,3,4-oxadiazol-2-yl)methyl)acrylamide] the same measures were less than 1000 nM, less than 1000 nM and more than 10000 nM.
For `Nc1ccc(/C=C/C(=O)NCc2cnc(-c3ccc(-c4ccc(C(=O)N5CC(F)(F)C5)cc4)cc3C(F)(F)F)o2)cn1` [Compound A019, (E)-3-(6-aminopyridin-3-yl)-N-((2-(4′-(3,3-difluoroazetidine-1-carbonyl)-3-(trifluoromethyl)-[1,1′-biphenyl]-4-yl)oxazol-5-yl)methyl)acrylamide] the same measures were less than 1000 nM, less than 1000 nM and 1000 to 5000 nM.
For `Nc1ccc(/C=C/C(=O)NCc2cnc(-c3ccc(-c4ccc(C(=O)N5CC(F)C5)cc4F)cc3C(F)(F)F)o2)cn1` [Compound A020, (E)-3-(6-aminopyridin-3-yl)-N-((2-(2′-fluoro-4′-(3-fluoroazetidine-1-carbonyl)-3-(trifluoromethyl)-[1,1′-biphenyl]-4-yl)oxazol-5-yl)methyl)acrylamide] the same measures were less than 1000 nM, less than 1000 nM and 1000 to 5000 nM.
As to `Nc1ccc(/C=C/C(=O)NCc2cnc(-c3ccc(-c4ccc(C(=O)N5CC(F)C5)cc4)cc3C(F)(F)F)o2)cn1` [Compound A021, (E)-3-(6-aminopyridin-3-yl)-N-((2-(4′-(3-fluoroazetidine-1-carbonyl)-3-(trifluoromethyl)-[1,1′-biphenyl]-4-yl)oxazol-5-yl)methyl)acrylamide], the IC50 is less than 1000 nM in assay [1] (Homo sapiens); less than 1000 nM in assay [2] (setting [4]); 1000 to 5000 nM in assay [3] (Mus musculus, NIH3T3).
As for `Nc1ccc(/C=C/C(=O)NCc2cnc(-c3ccc(-c4ccc(C(=O)N5CC(F)(F)C5)cc4F)cc3C(F)(F)F)o2)cn1` [Compound A022, (E)-3-(6-aminopyridin-3-yl)-N-((2-(4′-(3,3-difluoroazetidine-1-carbonyl)-2′-fluoro-3-(trifluoromethyl)-[1,1′-biphenyl]-4-yl)oxazol-5-yl)methyl)acrylamide], the IC50 in assay [1] (Homo sapiens) was less than 1000 nM; in assay [2] (setting [4]) it was less than 1000 nM; in assay [3] (Mus musculus, NIH3T3), less than 1000 nM.
For `Cc1c(CNC(=O)/C=C/c2ccc(N)nc2)sc(-c2ccc(-c3ccc(C(=O)N4CCC(F)(F)CC4)cc3)cc2-c2ccc(F)cc2)c1C` [Compound A023, (E)-3-(6-aminopyridin-3-yl)-N-((5-(4-(4,4-difluoropiperidine-1-carbonyl)-4″-fluoro-[1,1′:3′,1″-terphenyl]-4′-yl)-3,4-dimethylthiophen-2-yl)methyl)acrylamide], the IC50 was 1000 to 5000 nM in assay [1] (Homo sapiens); less than 1000 nM in assay [2] (setting [4]); more than 10000 nM in assay [3] (Mus musculus, NIH3T3).
For `Nc1ccc(/C=C/C(=O)NCc2ncc(-c3ccc(-c4ccc(C(=O)N5CC(F)(F)C5)cc4)cc3C(F)(F)F)o2)cn1` [Compound A024, (E)-3-(6-aminopyridin-3-yl)-N-((5-(4′-(3,3-difluoroazetidine-1-carbonyl)-3-(trifluoromethyl)-[1,1′-biphenyl]-4-yl)oxazol-2-yl)methyl)acrylamide] the same measures were less than 1000 nM, less than 1000 nM and 1000 to 5000 nM.
For `Nc1ccc(/C=C/C(=O)NCc2ccc(-c3c(C(F)(F)F)cc(-c4ccc(C(=O)N5CC(F)(F)C5)cn4)cc3C(F)(F)F)o2)cn1` [Compound A025, (E)-3-(6-aminopyridin-3-yl)-N-((5-(4-(5-(3,3-difluoroazetidine-1-carbonyl)pyridin-2-yl)-2,6-bis(trifluoromethyl)phenyl)furan-2-yl)methyl)acrylamide] the same measures were less than 1000 nM, less than 1000 nM and less than 1000 nM.
For `Nc1ccc(/C=C/C(=O)NCc2ccc(-c3cc4cc(C(=O)N5CCC(F)(F)CC5)cnc4cc3C(F)(F)F)o2)cn1` [Compound A026, (E)-3-(6-aminopyridin-3-yl)-N-((5-(3-(4,4-difluoropiperidine-1-carbonyl)-7-(trifluoromethyl)quinolin-6-yl)furan-2-yl)methyl)acrylamide], the IC50 is less than 1000 nM in assay [1] (Homo sapiens); less than 1000 nM in assay [2] (setting [4]); 1000 to 5000 nM in assay [3] (Mus musculus, NIH3T3).
Turning to `Cn1c(CNC(=O)/C=C/c2ccc(N)nc2)ccc1-c1ccc(-c2ccc(C(=O)N3CCC(F)(F)CC3)cc2)cc1-c1ccc(F)cc1` [Compound A-012, (E)-3-(6-aminopyridin-3-yl)-N-((5-(4-(4,4-difluoropiperidine-1-carbonyl)-4″-fluoro-[1,1′:3′,1″-terphenyl]-4′-yl)-1-methyl-1H-pyrrol-2-yl)methyl)acrylamide], the IC50 in assay [1] (Homo sapiens) is more than 10000 nM; in assay [2] (setting [4]), more than 10000 nM; in assay [3] (Mus musculus, NIH3T3) it was more than 10000 nM.
Regarding “(E)-3-(6-aminopyridin-3-yl)-N-((5-(1-chloro-6-(4,4-difluoropiperidine-1-carbonyl)naphthalen-2-yl)furan-2-yl)methyl)acrylamide [Compound A004]”, the values for the IC50 in assay [1], in assay [2] (setting [5]) and in assay [3] were less than 1000 nM, less than 1000 nM and more than 10000 nM, respectively.
For the compound “(E)-(4′-(2′-(2-(6-aminopyridin-3-yl)vinyl)-5,5′-bioxazol-2-yl)-3′-(trifluoromethyl)biphenyl-4-yl)(3,3-difluoroazetidin-1-yl)methanone [Compound A027]”, the IC50 in assay [1], in assay [2] (setting [5]) and in assay [3] was more than 10000 nM in each case.
